Test results reported in article PMC10447463, “Data-mining unveils structure–property–activity correlation of viral infectivity enhancing self-assembling peptides” (Nature Communications, 2023).
“And” between values parts separate entries of the source, which are not always exact repeats. Equal entries are not always repeated. Where two headings read alike, the source gives them in different places.

Experiments:
[1] = Turbidity, derived count rate of scattered light; type: physicochemical; conditions: for Count Rate / kcps: derived count rate of scattered light at 633 nm, 173°, from zeta-potential measurement, 0.1 mg/mL in 1 mM KCl after 1 d at 1 mg/mL in PBS, turbidity / microscopic aggregation, mean of triplicate; for Log Count Rate: log of derived count rate
Experimental: 4 µL of 1 mg/mL peptide fibrils solution is added to a 20 µL, 50 µM ThT–solution in PBS. The mixture is incubated for 15 min at RT to allow binding of ThT dye with β–sheet rich structures. For reference PBS (4 µL) was added instead of peptide fibril solution. The samples were placed in black UV Star® 384 microliter well–plates (Greiner bio–one). Fluorescence spectra were recorded on an Infinite® M1000 PRO microplate reader (Tecan) at λem = 488 nm upon excitation at λex = 440 nm with 10 nm bandwidths and multiple reads per well (3×3). Measurements were repeated in triplicates and averaged with standard deviation. […] Zeta-Potential. For the determination of the surface charge of aggregated peptides zeta-potential measurements were conducted with a Zetasizer Nano ZS, Malvern Instruments. Unless stated otherwise the peptides were dissolved from DMSO (10 mg/mL) in PBS (pH 7.4) to concentration of 1 mg/mL and incubated for 1d at RT. Just before the measurement the 60 µL of the peptides were further diluted in 600 µL KCl (aq, 1 mM) in a 1 mL disposable folded capillary cells (DTS–1060, Zetasizer Nano series, Malvern). The zeta potential of the peptides was derived from the electrophoretic mobility based on the Smoluchowski formula. All measurements were averaged over two individually performed experiments and conducted in triplicates for each sample. Aggregate analysis. […] Furthermore, fluorescence microscopy was conducted by staining 1 µL preformed fibrils (1 mg/mL) with 9 µL ThT (50 µM). Brightfield microscopy was performed simultaneously to evaluate aggregation also for non ThT-active fibrils. The measurements were performed on a Leica DMi8 microscope with 10x air objective and equipped with a Leica MC170 HD camera with a filter setting λem = 527/30 nm upon excitation at λex = 480/40 nm) and processed with the Leica LASX software. To quantify size and number of microscopic aggregation of particles > 10 µm^2 at least 3 independently measured images were analyzed via the 3D object counter analysis tool of ImageJ, v 1.53f51. Sum–frequency generation. The SFG experiments were carried out with a femtosecond Ti: Sapphire amplified laser system (Spitfire Ace, Spectra–Physics, 800 nm, 40 fs, 1 kHz) with 5 W output power. We used 2 W to pump an optical parametric amplifier (TOPAS, light conversion) with a non–collinear difference frequency generation stage to generate broadband IR pulses. Another 1 W of the laser output passed through an etalon to generate narrowband visible pulses (10 cm^-1). The incident angles of the visible and IR beams were 36° and 41° with respect to the surface normal, respectively. The visible (13 µJ) and IR (5 µJ) pulses were overlapped spatially and temporally at the sample position. Subsequently, the generated SFG pulse was guided into a spectrograph (Acton SP 300i, Princeton Instruments), and detected with an EMCCD (Newton, Andor Technology). To avoid IR absorption of water vapor, we purged N2 for the measurement. All spectra were collected in the ssp (denoting s-, s- and p-polarized SFG, visible and IR, respectively) polarization combination. The spectra were normalized to the non–resonant signal taken from z–cut quartz after subtracting a background spectrum. […]
ways to determine turbidity of samples, this can be via transmittance and via scattering. Transmittance […]
as it is an easy and fast method.10,11 However, transmittance contributes not only from µm-sized aggregates but also nm-sized aggregates such as distinct fibrils, which makes hard to distinguish between fibril formation and micrometer sized aggregation. Although dynamic light scattering is a frequently applied method for determination of particle size, it cannot be conducted in solutions with anisotropic aggregates in micrometer size range, since the Stokes-Einstein relation is only applicable for homogeneous […] spherical particles.12 Further models describing scattering intensity and […]

[2] = Zeta-potential measurement; type: physicochemical; conditions: for Zeta pot. / mV: 1 mg/mL in PBS pH 7.4 from 10 mg/mL DMSO stock, 1 d RT, 60 µL diluted in 600 µL 1 mM KCl, Zetasizer Nano ZS, Smoluchowski, mean of triplicate
Outline: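 Peptides from a 10 mg/mL DMSO stock were brought to 1 mg/mL in PBS (pH 7.4) and aged 1 d at RT. Just before reading, they were diluted into 1 mM aqueous KCl, and zeta potential was calculated from electrophoretic mobility with the Smoluchowski formula.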

[3] = type: physicochemical; set-up: key to Fibril / Fibril Formation / TEM 2cat / Fibril: 1 = fibrils present; 0 non-fibrillar structures; conditions: for Fibril / Fibril Formation: 1 mg/mL, uranyl acetate stain, qualitative
[4] = Turbidity, derived count rate of scattered light; type: physicochemical; conditions: for Count Rate: derived count rate of scattered light (turbidity); for Log10 Count Rate: turbidity, derived count rate of scattered light, data of Figure 2D
[5] = β-sheet content by ATR-FT-IR; type: physicochemical; conditions: for ß-sheet / %: ATR-FT-IR of lyophilised 1 mg/mL PNF solution, peak integral ratio 1625-1635 cm-1, measured once; for b -sheet / %: Fig. S7 panel A, β-sheet content by ATR-FT-IR
Experimental: For ATR FT–IR spectroscopy measurements, 200 µL of the respective 1 mg/mL PNF solution was lyophilized and the resulting powder used for measurement. All spectra were recorded on a Bruker Tensor 27 spectrometer with a diamond crystal as ATR element (PIKE MiracleTM, spectral resolution 2 cm^-1). Every sample was measured with 64 scans. Data were analyzed with OriginLab software and calculation of β–sheet content was conducted according to a previous report. TEM. For TEM measurements 5 µL of PNF fibrils (1 mg/mL) were placed on copper grids coated with carbon and formvar layer (300 mesh, Plano GmbH). After 10 min incubation time, the grids were staining with 4% uranyl acetate solution for 2.5 min and washed with water. Measurements were performed on a Jeol 1400 electron microscope with 120 kV acceleration voltage. CR Assay. For the determination of the amount of peptide monomer converting into nanostructures the amine reactive dye fluorescamine was used analogous to a previous reported protocol. Briefly, 100 µL of the preformed PNF solution was centrifuged in a Vivaspin 500 tube (3 kDa MWCO) to separate fibers from free peptide monomer (16200 x g, 4 °C, 45 min). The filtrate and 100 μL of the non-filtered PNF sample were lyophilized and dissolved in 30 μL DMSO. 10 μL of the filtrate and non-filtered DMSO samples were submitted in a black UV Star® 384 microliter well–plates (Greiner bio–one) and 3 μL of the fluorescamine solution (10 mg/mL, DMSO) was added to measure the fluorescence enhancement. After 20 min of incubation at RT, fluorescence was recorded on an Infinite® M1000 PRO microplate reader (Tecan) at λem = 470 nm upon excitation at λex = 365 nm with 10 nm bandwidths and multiple reads per well (3×3). Measurements were repeated in triplicates and averaged with standard deviation. All values were calculated as n-fold fluorescence enhancement (DMSO only as a reference was set to 1). The conversion rate CR was defined according to the equation Eq. (3).3 CR=100−100×fluorescenceintensityfiltrate/fluorescenceintensityoriginal[%]

[6] = Log10 of derived count rate of scattered light (turbidity)
[7] = logarithm of count rate in kcps
[8] = turbidity, Log10 of derived count rate of scattered light, Figure 3A source data
[9] = turbidity, log10 of derived count rate of scattered light
[10] = zeta-potential of peptide, source data of Figure 2C
[11] = zeta-potential of the peptide assemblies, mean, Figure 3A source data
[12] = FigS12 panel A, fibril category by TEM
[13] = TEM, 1 = fibrils present, 0 = non-fibrillar
[14] = TEM, 1 = fibrils present, 0 = non-fibrillar structures
[15] = log10 of derived count rate of scattered light (turbidity)
[16] = zeta potential of peptide assemblies

Sequence	Log10 Count Rate [1, 6]	Count Rate / kcps [1] [kcps]	Log10 Count Rate [1, 7]	Log10 Count Rate [1, 8]	Log10 Count Rate [1, 9]	Zeta-Pot. [2]	Zeta pot. / mV [2] [mV]	Zeta-Potential / mV [2, 10] [mV]	Zeta-Potential / mV [2, 11] [mV]	TEM 2cat ([3]; Fig S10 panel D)	Fibril ([3]; Fig S10 panel E)	TEM 2cat [3, 12]	Fibril ([3]; FigS12 panel B, TEM)	Fibril / Fibril Formation ([3]; TEM)	Fibril [3, 13]	Fibril [3, 14]	Count Rate [4]	Log10 Count Rate [4]	ß-sheet / % [5] [%]	b -sheet / % [5] [%]	other results
CKAKAQANM	2.317	207	2.3	2.317	2.317	-7.773	-7.8	-4.618	-7.77	0	0	0	0	0	0	0	207.3	2.317	34	34.22	
CKAKAQANMWQ	0.9526	9	1 and 0.9528	0.9526	0.9526	0.7373	0.7	2.155	0.74	0	0	0	0	0	0	0	8.967	0.9526	39	39.38	
CKIKQIIRGD	3.544	3495		3.544				13.2	13.2				0	0	0	0	3495	3.544			Log10 Count Rate [1, 15]: 3.544; Zeta-Pot. [2, 16]: 13.2
HHHHKIKIKIKIWWWW [TM4]																					Log Count Rate ([1]; Fig S8 panels A, C, asymmetric log errors): 4.376; Log Count Rate ([1]; Fig S8 panels B, D): 4.376; Count Rate ([1]; Fig S8 panels B, D, turbidity, derived count rate of scattered light): 23756.7; Zeta Count Rate Category ([1]; category 1 / 0, no key given): 1; Zeta Count Rate / kcps ([1]; derived count rate of scattered light): 23756.66667 kcps; Zeta Pot. / mV [2]: 14.5 mV; Zeta category ( +1 = if > 4 mV;-1 = if < -4 mV; 0 = -4mV to 4 mV) [2]: 1 (+1 = if > 4 mV); Zeta-pot. / mV ([2]; zeta potential of peptide, Fig S15 source data): 14.5 mV; TEM: 1= fibrils, 0= aggregates (micelle), 0.5 = aggregates and fibrils, -1 = nothing obersved, STD prep ([3]; STD prep): 0.5
RGDKIKIQINMC	3.147	1404		3.147				13.9	12.2					1	1	1	1404	3.147			Log10 Count Rate [1, 15]: 3.147; Zeta-Pot. [2, 16]: 12.2; TEM 2cat ([3]; category: fibrils present or non-fibrillar): 1
